Holding throughout (assay): NCI anticancer screen, dose series, 48 h
Test [1] concerns SF-295 CNS.
The subject of test [2] is RPMI-8226 leukemia.
Test [3] has as its system MDA-MB-231 breast.
The test system of test [4] is SN12C renal.
The subject of test [5] is CAKI-1 renal.
For test [6], the system named is MDA-MB-435.
Test [7] concerns SK-MEL-5 melanoma.
Test [8] concerns MDA-N.
For test [9], the system named is NCI-H460 lung.
Test [10] concerns MCF7 breast.

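How tested: cells in 96-well plates exposed to compound for 48 hours at five concentrations. The concentration for full growth arrest is given as TGI.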 A value given as a limit tells only on which side of the number the result lay.

Results on 21 molecules are retold here after PubChem BioAssay (NCI).

On to `COC(=O)c1cc2c(cc1Cl)Sc1nnc(Nc3ccc(C)cc3)n1S2(=O)=O`, for which the TGI in test [1] is 30.4 µM; in test [2] it was 5.44 µM; in test [3], 27.2 µM; in [4], 36.5 µM; in [5], 22 µM; in test [6] it was 21.1 µM. The TGI in test [7] worked out at 27.6 µM; in test [8] it was 20.6 µM; in [9], 25.7 µM; in [10], 11.4 µM.

`CCN(CC)CCSc1c2cc(OC)ccc2nc2ccc(OC)cc12`: the TGI in test [1] is over 57.5 µM; in test [2], 6.96 µM; in [3] it was 19.9 µM; in [4], 9.75 µM; in test [5], 22.9 µM; in test [6], 21.3 µM. For the same molecule, the TGI in test [7] was 27.7 µM; in test [8], 8.97 µM; in [9], over 61 µM; in test [10] it was over 100 µM.

For the molecule `C=CCCC1(CC(Sc2ccccc2)P(=O)(c2ccccc2)c2ccccc2)OCCO1` (stereo not given), the TGI in test [1], in test [2], in test [3], in [4], in test [5] and in [6] was over 10 µM in each case. Moreover, the TGI in test [7], in test [8], in test [9] and in [10] was over 10 µM in each case.

As for `CCCCCCCCCCCC(=O)OCC(C[As](=O)(O)O)OC(=O)CCCCCCCCCCC` (stereo not given), the TGI in test [1] was 26.7 µM; in test [2], over 62 µM; in test [3] it was 16 µM; in test [4], 8.27 µM; in test [5], 21.7 µM; in [6], 9.91 µM. The TGI in [7] came to 3.64 µM; in test [8] it was 13 µM; in test [9], 13.3 µM; in test [10], 13 µM.

Turning to `C[N+]1(C)CCc2cc(O)c(O)cc2C1Cc1ccc(O)c(O)c1` (stereo not given), the TGI is over 100 µM in test [1]; 65.9 µM in [2]; over 100 µM in [3]; over 100 µM in test [4]; over 100 µM in test [5]; 39.7 µM in test [6]. Also, the TGI in test [7] is over 100 µM; in test [8] it was 89.1 µM; in test [9], over 100 µM; in test [10] it was 43.3 µM.

Regarding `COc1cc2cc3c4cc(OC)c(OC)cc4cc[n+]3c(C)c2cc1OC` (tested in a mixture with another compound), the TGI in test [1], in test [2], in test [3], in [4], in test [5] and in test [6] was over 100 µM each time. Also, the TGI in test [7], in test [8], in test [9] and in test [10] was over 100 µM in each case.

As to `CCOC(=O)c1cn2c(n1)sc1cc(Cl)ccc12`, the TGI in test [1], in test [2], in [3], in test [4], in test [5] and in test [6] was over 100 µM throughout. In addition, the TGI in [7] was over 100 µM; in [8] it was 12.6 µM; in test [9], over 100 µM; in test [10], over 100 µM.

Turning to `C/C(=N/NC(N)=S)c1ccc[nH]1`, the TGI in test [1], in test [2], in test [3], in test [4], in test [5] and in test [6] was over 100 µM throughout. Further, the TGI in test [7], in [8], in test [9] and in test [10] was over 100 µM in each case.

Consider `CC(C)=C[C@H]1CCC2(OCCO2)[C@]1(C)CO`, for which the TGI in test [1], in [2], in test [3], in test [4], in test [5] and in [6] was over 100 µM in each case. Also, the TGI in test [7], in test [8], in [9] and in test [10] was over 100 µM throughout.

Turning to `CN(C)CCCN=c1c2ccccc2n(O)c2ccccc12`, the TGI in [1], in [2], in [3], in test [4], in test [5] and in [6] was over 100 µM in each case. Moreover, the TGI in test [7], in [8], in [9] and in [10] was over 100 µM in each case.

In the case of `COC(=O)C1=CS/C(=C2\S[C@@H]3[C@H](S2)[C@H]2C=C[C@@H]3C2)S1`, the TGI in [1] is 17.9 µM; in [2] it was over 100 µM; in test [3], over 100 µM; in [4] it was over 100 µM; in test [5], over 100 µM; in [6], 5.09 µM. Also, the TGI in test [7], in [8], in [9] and in test [10] was over 100 µM throughout.

As to `O=C(/C=C/c1ccc2ccccc2c1)NCc1ccc(C(=O)NCCc2ccccc2)cc1`, the TGI in [1], in test [2], in [3], in test [4], in test [5] and in test [6] was over 100 µM in each case. In addition, the TGI in test [7], in test [8], in test [9] and in test [10] was over 100 µM each time.

Consider `CO/C=C(/C(=O)OC)c1ccccc1COc1cccc(C(F)(F)F)c1`, for which the TGI in test [1] was over 100 µM; in test [2], 7.31 µM; in test [3], 68.8 µM; in [4], over 100 µM; in [5], 53.9 µM; in [6], 23.1 µM. The TGI in test [7] was 14.5 µM; in test [8] it was over 100 µM; in test [9], over 100 µM; in test [10] it was over 100 µM.

As for `COc1cc(-c2nc3ccccn3c2/N=C/c2cc(Br)cc(Br)c2O)ccc1O`, the TGI in test [1] was 50 µM; in test [2] it was over 100 µM; in [3], 36.3 µM; in test [4], 40.6 µM; in [5], 93.3 µM; in [6] it was 72 µM. The TGI in test [7] was 72.4 µM; in [8], 59 µM; in test [9], over 100 µM; in [10], 53.8 µM.

Turning to `Cc1ccc(S(=O)(=O)N/N=C2/CCCOC2)cc1`, the TGI in test [1], in test [2], in [3], in [4], in test [5] and in test [6] was over 100 µM each time. The TGI in test [7], in test [8], in test [9] and in test [10] was over 100 µM each time.

Consider `O=C(NCP(=O)(c1ccccc1)c1ccccc1)OCc1ccccc1`, for which the TGI in [1], in [2], in test [3], in [4], in test [5] and in test [6] was over 100 µM each time. Further, the TGI in test [7], in [8], in test [9] and in test [10] was over 100 µM in each case.

With `COC(=O)c1cc2c(cc1CC(Cc1ccc3c(c1)CCCC3)C(=O)OC)CCCC2` (stereo not given), the TGI is over 100 µM in test [1]; 91.4 µM in test [2]; over 100 µM in test [3]; over 100 µM in [4]; over 100 µM in test [5]; over 100 µM in test [6]. Besides, the TGI in [7], in test [8], in [9] and in [10] was over 100 µM in each case.

As for `CCN1CCN(c2nc3ccccc3c3c2CCOc2ccccc2-3)CC1`, the TGI was over 63 µM in test [1]; 50 µM in test [2]; over 61.2 µM in [3]; over 84 µM in test [4]; over 55.3 µM in [5]; over 62.7 µM in [6]. Also, the TGI in test [7] was 36.7 µM; in test [8] it was over 55.8 µM; in test [9] it was over 73.9 µM; in [10], over 56.5 µM.

For the molecule `CCOC(=O)c1cc2c3ccn(Cc4ccccc4)c3c3c(C)[nH]oc3c2n1`, the TGI in [1], in test [2], in [3], in test [4], in [5] and in [6] was over 100 µM throughout. Also, the TGI in test [7], in [8], in test [9] and in test [10] was over 100 µM in each case.

As to `N#CCCC(CCC#N)(CCC#N)NO`, the TGI in [1], in test [2], in test [3], in test [4], in test [5] and in test [6] was over 100 µM each time. For the same molecule, the TGI in test [7], in test [8], in [9] and in [10] was over 100 µM throughout.

For the molecule `CCC(=O)Oc1ccc2c(c1)c(=O)c1c(NCCCN(C)C)ccc3nnn2c31`, the TGI is 17.3 µM in [1]; 7.16 µM in test [2]; 19.1 µM in [3]; 15.3 µM in [4]; 14.3 µM in [5]; 18.7 µM in [6]. Moreover, the TGI in test [7] was found to be 10.3 µM; in [8], 18.4 µM; in test [9], 9.23 µM; in [10] it was 12.7 µM.
